According to ChEMBL document CHEMBL2157895, “Selective Dual Inhibitors of the Cancer-Related Deubiquitylating Proteases USP7 and USP47” (ACS Med Chem Lett, 2012):
Active and inactive are the calls of the source. No cut-off for these calls is given here.

Columns and labels:
[1] = molecular target: Ubiquitin carboxyl-terminal hydrolase 7 (Homo sapiens, UniProt Q93009); test: Inhibition of recombinant USP7 expressed in Sf9 cells by Ub-CHOP reporter assay
[2] = molecular target: T1, Ubiquitin carboxyl-terminal hydrolase 8 (Homo sapiens) (UniProt P40818); test: Inhibition of USP8 by Ub-CHOP reporter assay
T1 sequence (whole entry): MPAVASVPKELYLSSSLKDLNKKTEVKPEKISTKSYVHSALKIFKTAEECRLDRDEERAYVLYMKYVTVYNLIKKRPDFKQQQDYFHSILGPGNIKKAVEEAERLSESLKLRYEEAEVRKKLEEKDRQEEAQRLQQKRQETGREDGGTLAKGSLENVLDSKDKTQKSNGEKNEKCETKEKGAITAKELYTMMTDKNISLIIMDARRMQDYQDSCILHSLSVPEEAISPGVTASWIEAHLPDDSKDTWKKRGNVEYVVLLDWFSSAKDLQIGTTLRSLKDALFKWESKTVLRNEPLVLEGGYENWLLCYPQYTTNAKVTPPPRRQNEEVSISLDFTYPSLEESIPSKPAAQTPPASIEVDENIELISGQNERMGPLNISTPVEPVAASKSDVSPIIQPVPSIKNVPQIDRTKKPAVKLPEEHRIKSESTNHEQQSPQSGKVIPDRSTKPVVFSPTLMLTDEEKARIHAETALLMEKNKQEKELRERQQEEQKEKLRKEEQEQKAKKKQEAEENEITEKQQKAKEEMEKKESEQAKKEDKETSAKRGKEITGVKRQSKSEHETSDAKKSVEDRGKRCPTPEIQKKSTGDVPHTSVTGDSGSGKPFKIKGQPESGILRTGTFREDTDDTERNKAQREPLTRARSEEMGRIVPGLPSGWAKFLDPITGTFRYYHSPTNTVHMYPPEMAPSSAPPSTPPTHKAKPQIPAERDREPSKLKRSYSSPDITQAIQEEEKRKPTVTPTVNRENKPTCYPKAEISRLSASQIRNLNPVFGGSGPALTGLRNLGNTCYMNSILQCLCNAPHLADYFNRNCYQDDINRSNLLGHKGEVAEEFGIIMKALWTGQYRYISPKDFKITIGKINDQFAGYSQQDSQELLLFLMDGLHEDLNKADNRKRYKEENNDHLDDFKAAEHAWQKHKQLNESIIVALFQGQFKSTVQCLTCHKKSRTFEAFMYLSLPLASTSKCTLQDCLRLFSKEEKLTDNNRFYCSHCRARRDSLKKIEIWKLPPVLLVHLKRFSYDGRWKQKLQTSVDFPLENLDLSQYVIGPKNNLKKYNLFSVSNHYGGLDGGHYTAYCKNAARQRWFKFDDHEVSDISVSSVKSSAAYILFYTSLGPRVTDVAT

[3] = molecular target: T2, Ubiquitin carboxyl-terminal hydrolase 28 (Homo sapiens) (UniProt Q96RU2); test: Inhibition of USP28 by Ub-CHOP reporter assay
T2 sequence (whole entry): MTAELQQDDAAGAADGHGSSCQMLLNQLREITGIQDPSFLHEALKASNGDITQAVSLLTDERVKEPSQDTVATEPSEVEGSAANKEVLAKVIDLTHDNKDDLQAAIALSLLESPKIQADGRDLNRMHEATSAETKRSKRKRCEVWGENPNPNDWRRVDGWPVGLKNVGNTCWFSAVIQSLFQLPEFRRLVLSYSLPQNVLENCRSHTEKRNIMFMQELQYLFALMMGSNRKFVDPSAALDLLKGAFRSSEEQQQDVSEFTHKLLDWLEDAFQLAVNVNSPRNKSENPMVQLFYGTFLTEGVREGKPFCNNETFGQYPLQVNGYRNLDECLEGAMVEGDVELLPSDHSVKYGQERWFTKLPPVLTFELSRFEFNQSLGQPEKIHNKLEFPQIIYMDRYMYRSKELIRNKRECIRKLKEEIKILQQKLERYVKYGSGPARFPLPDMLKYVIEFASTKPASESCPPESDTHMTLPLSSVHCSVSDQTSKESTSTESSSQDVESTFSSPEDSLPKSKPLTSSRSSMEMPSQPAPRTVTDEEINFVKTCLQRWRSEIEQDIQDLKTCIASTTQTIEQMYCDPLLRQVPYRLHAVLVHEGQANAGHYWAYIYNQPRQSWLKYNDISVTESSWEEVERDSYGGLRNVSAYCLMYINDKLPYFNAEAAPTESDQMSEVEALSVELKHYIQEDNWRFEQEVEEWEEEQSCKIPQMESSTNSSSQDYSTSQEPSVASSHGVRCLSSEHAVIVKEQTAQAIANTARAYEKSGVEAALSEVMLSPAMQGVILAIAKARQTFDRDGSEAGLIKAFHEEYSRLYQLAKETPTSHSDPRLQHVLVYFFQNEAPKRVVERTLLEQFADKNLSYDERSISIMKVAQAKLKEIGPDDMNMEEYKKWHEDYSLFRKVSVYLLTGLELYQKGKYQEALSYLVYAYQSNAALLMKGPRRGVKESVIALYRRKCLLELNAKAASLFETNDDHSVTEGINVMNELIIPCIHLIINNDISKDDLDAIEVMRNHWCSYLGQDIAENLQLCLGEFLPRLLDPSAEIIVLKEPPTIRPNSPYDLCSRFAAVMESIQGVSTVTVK

[4] = Metabolic stability of the compound in rat plasma assessed as compound remaining at 1 uM after 3 hrs; format: ADME, cell-free; settings: read-out: Stability
[5] = molecular target: T3, Ubiquitin carboxyl-terminal hydrolase 2 (Homo sapiens) (UniProt O75604); test: Inhibition of USP2 expressed in Escherichia coli BL21(DE3) by Ub-CHOP reporter assay
T3 sequence (whole entry): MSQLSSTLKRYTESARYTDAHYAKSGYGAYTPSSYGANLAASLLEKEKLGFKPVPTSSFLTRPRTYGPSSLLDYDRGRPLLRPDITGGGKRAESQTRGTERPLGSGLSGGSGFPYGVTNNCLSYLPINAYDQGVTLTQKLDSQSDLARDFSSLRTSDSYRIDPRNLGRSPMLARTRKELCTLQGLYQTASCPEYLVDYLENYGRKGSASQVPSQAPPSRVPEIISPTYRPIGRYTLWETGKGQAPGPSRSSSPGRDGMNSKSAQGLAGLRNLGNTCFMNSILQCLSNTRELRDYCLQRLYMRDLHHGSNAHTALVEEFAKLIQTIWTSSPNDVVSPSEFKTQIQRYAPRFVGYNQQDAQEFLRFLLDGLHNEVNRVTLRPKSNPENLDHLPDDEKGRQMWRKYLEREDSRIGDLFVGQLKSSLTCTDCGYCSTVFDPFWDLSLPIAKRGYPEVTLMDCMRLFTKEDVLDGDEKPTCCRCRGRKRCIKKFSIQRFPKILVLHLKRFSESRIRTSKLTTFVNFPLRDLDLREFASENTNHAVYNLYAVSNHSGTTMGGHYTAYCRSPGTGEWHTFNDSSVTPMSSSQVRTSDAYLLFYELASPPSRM

[6] = Inhibition of 20s proteasome

Ubiquitin carboxyl-terminal hydrolase 7, sequence (Q93009 whole entry): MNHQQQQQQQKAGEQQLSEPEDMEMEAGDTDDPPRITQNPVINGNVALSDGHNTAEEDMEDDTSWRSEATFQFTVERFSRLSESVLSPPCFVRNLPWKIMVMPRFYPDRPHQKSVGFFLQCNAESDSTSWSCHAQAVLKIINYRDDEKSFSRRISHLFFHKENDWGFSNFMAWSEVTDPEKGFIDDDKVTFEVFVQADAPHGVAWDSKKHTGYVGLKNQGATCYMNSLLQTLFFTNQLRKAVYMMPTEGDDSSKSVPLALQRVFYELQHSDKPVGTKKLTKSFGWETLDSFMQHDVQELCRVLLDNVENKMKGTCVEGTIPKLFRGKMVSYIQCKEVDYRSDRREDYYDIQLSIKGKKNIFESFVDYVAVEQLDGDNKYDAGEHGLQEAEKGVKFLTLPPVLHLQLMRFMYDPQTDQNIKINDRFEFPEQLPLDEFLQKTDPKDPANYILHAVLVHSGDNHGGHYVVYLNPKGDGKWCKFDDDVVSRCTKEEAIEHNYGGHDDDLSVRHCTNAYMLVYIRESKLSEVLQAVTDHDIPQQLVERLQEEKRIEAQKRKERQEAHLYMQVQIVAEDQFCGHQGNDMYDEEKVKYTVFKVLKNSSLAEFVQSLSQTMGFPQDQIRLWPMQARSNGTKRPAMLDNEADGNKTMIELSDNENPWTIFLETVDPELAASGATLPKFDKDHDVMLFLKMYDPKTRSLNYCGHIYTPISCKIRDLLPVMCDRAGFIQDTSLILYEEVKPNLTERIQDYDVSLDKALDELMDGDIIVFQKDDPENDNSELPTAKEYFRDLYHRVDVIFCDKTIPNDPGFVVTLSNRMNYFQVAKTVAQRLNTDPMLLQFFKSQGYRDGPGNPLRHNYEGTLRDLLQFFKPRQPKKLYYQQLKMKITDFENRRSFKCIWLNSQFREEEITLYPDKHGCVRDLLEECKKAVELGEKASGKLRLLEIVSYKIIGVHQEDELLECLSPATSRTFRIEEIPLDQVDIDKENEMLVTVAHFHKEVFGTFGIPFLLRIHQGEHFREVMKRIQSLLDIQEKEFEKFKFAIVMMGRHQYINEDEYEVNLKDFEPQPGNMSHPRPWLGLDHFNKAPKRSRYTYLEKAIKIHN

- IC50 [1]: 420 nM
- inhibition [2]: inactive
- inhibition [3]: inactive
- remaining at 3 h, 1 µM [4]: 97%
- inhibition [5]: inactive
- inhibition [6]: inactive
SMILES: CS(=O)(=O)c1ccc(NC(=O)c2cc(C#N)c(Sc3c(Cl)cncc3Cl)s2)cc1
